Experimental data taken from DBAASP.
≈ marks a conversion by molar mass, not a printed value.

Legend:
Assay in all cases: ≥ marks a high value that may be exact or a test limit, other limits are often not marked, values filed in µg/mL are converted to µM
[1] = test system: Bacillus amyloliquefaciens ATCC 23842
[2] = test system: Bacillus cereus ATCC 14579
[3] = test system: Bacillus licheniformis ATCC 14580
[4] = test system: Bacillus subtilis ATCC 6051
[5] = test system: Enterococcus faecalis 1F-1
[6] = test system: Enterococcus faecium 5F-10
[7] = test system: Escherichia coli ATCC 25922
[8] = test system: Proteus mirabilis ATCC 35659
[9] = test system: Pseudomonas aeruginosa PAO1
[10] = test system: Salmonella enterica ATCC H9812
[11] = test system: Staphylococcus aureus ATCC 29213
Escherichia coli BW25113 = test system: Escherichia coli BW25113
Escherichia coli J2210 = test system: Escherichia coli J2210
Escherichia coli JJ2489 = test system: Escherichia coli JJ2489
Escherichia coli JW0013 = test system: Escherichia coli JW0013
[12] = test system: Escherichia coli JW0368 ΔsbmA
[13] = test system: Escherichia coli JW2778 ΔygdD
Escherichia coli MC1041 = test system: Escherichia coli MC1041
[14] = test system: Salmonella enterica subsp. enterica serovar Enteritidis MH91989
[15] = test system: Salmonella typhimurium SL1344
[16] = test system: Candida albicans ATCC 10231
[17] = test system: Cryptococcus neoformans ATCC 32045
[18] = test system: Escherichia coli ATCC 2592
[19] = test system: Pseudomonas aeruginosa ATCC 10145
[20] = test system: Staphylococcus aureus ATCC 33591

MIC [1] | MIC [2] | MIC [3] | MIC [4] | MIC [5] | MIC [6] | MIC [7] | MIC [8] | MIC [9] | MIC [10] | MIC [11] | Structure (SMILES) | MIC [16] | MIC [17] | MIC [18] | MIC [19] | MIC [20] | also measured
≥ 217 µM | ≥ 217 µM | ≥ 217 µM | ≥ 217 µM | ≥ 217 µM | ≥ 217 µM | 109 µM (≈ 64 µg/mL) | ≥ 217 µM | > 217 µM | ≥ 109 µM | > 217 µM | CC(C)C[C@H](N)C(=O)N[C@@H](CO)C(=O)N[C@@H](CCCN=C(N)N)C(=O)N[C@H](C(=O)N[C@@H](CC(=O)O)C(=O)O)C(C)C [LSRVD] |  |  |  |  |  | 
 |  |  |  |  |  |  |  |  |  |  | CC(C)C[C@H](NC(=O)[C@H](CCCN=C(N)N)NC(=O)[C@@H]1CCCN1C(=O)[C@H](CCCN=C(N)N)NC(=O)[C@@H]1CCCN1C(=O)[C@@H]1CCCN1C(=O)[C@H](CCCN=C(N)N)NC(=O)[C@@H]1CCCN1C(=O)[C@H](CCC(N)=O)NC(=O)[C@@H]1CCCN1C(=O)[C@H](CCCN=C(N)N)NC(=O)[C@H](Cc1ccc(O)cc1)NC(=O)[C@@H](NC(=O)[C@@H]1CCCN1C(=O)[C@H](CCCCN)NC(=O)[C@H](CC(N)=O)NC(=O)[C@H](CC(N)=O)NC(=O)CN)C(C)C)C(=O)O [GNNKPVYRPQPRPPRPRL] |  |  |  |  |  | MIC (Escherichia coli BW25113): 0.096 µM (≈ 0.206 µg/mL); MIC (Escherichia coli J2210): 0.252 µM (≈ 0.54 µg/mL); MIC (Escherichia coli JJ2489): 0.133 µM (≈ 0.285 µg/mL); MIC (Escherichia coli JW0013): 0.096 µM (≈ 0.206 µg/mL); MIC [12]: 0.133 µM (≈ 0.285 µg/mL); MIC [13]: 0.192 µM (≈ 0.411 µg/mL); MIC (Escherichia coli MC1041): 0.126 µM (≈ 0.27 µg/mL); MIC [14]: 0.096 µM (≈ 0.206 µg/mL); MIC [15]: 0.192 µM (≈ 0.411 µg/mL)
≥ 154 µM | ≥ 154 µM | ≥ 154 µM | ≥ 154 µM | ≥ 154 µM | ≥ 154 µM | > 154 µM | ≥ 154 µM | > 154 µM | ≥ 154 µM | > 154 µM | CC(C)C[C@H](NC(=O)[C@H](CCC(=O)O)NC(=O)[C@H](CC(=O)O)NC(=O)[C@@H](NC(=O)[C@H](CCCN=C(N)N)NC(=O)[C@H](CO)NC(=O)[C@@H](N)CC(C)C)C(C)C)C(=O)O [LSRVDEL] |  |  |  |  |  | 
 |  |  |  |  |  |  |  |  |  |  | NCCCC[C@H](NC(=O)[C@H](Cc1ccccc1)NC(=O)[C@H](Cc1ccccc1)NC(=O)[C@H](CCCCN)NC(=O)[C@H](CCCCN)NC(=O)[C@H](Cc1ccccc1)NC(=O)[C@H](Cc1ccccc1)NC(=O)[C@H](CCCCN)NC(=O)[C@H](CCCCN)NC(=O)[C@H](Cc1ccccc1)NC(=O)[C@H](Cc1ccccc1)NC(=O)[C@H](CCCCN)NC(=O)[C@H](CCCCN)NC(=O)[C@H](Cc1ccccc1)NC(=O)[C@H](Cc1ccccc1)NC(=O)[C@H](CCCCN)NC(=O)[C@H](CCCCN)NC(=O)[C@H](Cc1ccccc1)NC(=O)[C@H](Cc1ccccc1)NC(=O)[C@H](CCCCN)NC(=O)[C@H](CCCCN)NC(=O)[C@H](Cc1ccccc1)NC(=O)[C@H](Cc1ccccc1)NC(=O)[C@H](CCCCN)NC(=O)[C@H](CCCCN)NC(=O)[C@H](Cc1ccccc1)NC(=O)[C@H](Cc1ccccc1)NC(=O)[C@@H](N)CCCCN)C(=O)O [KFFKKFFKKFFKKFFKKFFKKFFKKFFK] | 91.3 µM (≈ 354 µg/mL) | 22.7 µM (≈ 88 µg/mL) | ≥ 32.3 µM | ≥ 32.3 µM | ≥ 64.6 µM | 
 |  |  |  |  |  |  |  |  |  |  | C[C@H](NC(=O)[C@H](Cc1ccccc1)NC(=O)[C@H](CCCCN)NC(=O)[C@H](CCCCN)NC(=O)[C@H](C)NC(=O)[C@H](Cc1ccccc1)NC(=O)[C@H](CCCCN)NC(=O)[C@H](CCCCN)NC(=O)[C@H](C)NC(=O)[C@H](Cc1ccccc1)NC(=O)[C@@H](N)CCCCN)C(=O)N[C@@H](CCCCN)C(=O)O [KFAKKFAKKFAK] | 260 µM (≈ 374 µg/mL) | ≥ 123 µM | ≥ 173 µM | ≥ 347 µM | ≥ 347 µM | 
